Results reported in patent publication US7157256B2, “Method for producing para-hydroxystyrene and other multifunctional aromatic compounds using two-phase extractive fermentation” (E. I. du Pont de Nemours and Company, priority 2003, dated 2007).
Where “and” joins values, the source holds several entries; their conditions need not be identical. Equal values may be shown once.

Tests used:
Format in all cases: cell-based
P. putida KT2440 = test: Effect of pHCA on the growth of Pseudomonas putida KT2440; settings: pHCA 25 g/L
Description: (§1) Liquid cultures of these strains were grown in 10 mL of LB medium containing 0.25% glucose and 10 mM MgSO4 in 50 mL screw-capped, glass tubes at 30° C. and 200 rpm in an incubator shaker. In all subsequent media, pHCA was added from a 60 g/L stock solution, which was adjusted to pH 7.0 using KOH and then filter-sterilized. Samples of each culture were streaked on LB agar plates containing 0.25% glucose, 10 mM MgSO4 and 30 g/L pHCA and grown at 30° C. Individual colonies taken from these plates were grown to stationary phase at 30° C. in 10 mL of LB medium containing 0.5% glucose, 10 mM MgSO4 and 25 g/L pHCA in 50 mL screw-capped, glass tubes. These stationary phase cultures were diluted 1:25 in fresh LB medium containing 0.5% glucose, 10 mM MgSO4 and either 0 or 25 g/L pHCA and grown in 50 mL screw-capped, glass tubes at 30° C. and 200 rpm in an incubator shaker. Cell growth in these cultures was monitored by taking aliquots and measuring the OD at 600 nm of the culture or dilutions of the culture, which were made with LB medium. These OD measurements were used to calculate the doubling time and growth rate as a percentage of growth observed in test medium without pHCA.

E. coli TY1 (DGL430) = test: Effect of pHCA and pHS on growth and fermentation of E. coli, shake flasks
Description: This study was done using E. coli TY1 (DGL430), a tyrosine overproducing strain obtained from OmniGene Bioproducts, Inc. (Cambridge, Mass.). This strain also produces phenylalanine. The seed culture of this strain was propagated in a medium consisting of MgSO4.7H2O (0.5 g/L), (NH4)2SO4 (4 g/L), MOPS (20.9 g/L) and 10 mL of phosphate solution. The pH of the seed medium was adjusted to pH 6.8 and then the medium was steam-sterilized. The phosphate solution contained KH2PO4 (57.3 g/L) and K2HPO4 (110.2 g/L) and was adjusted to pH 6.8. The following solutions were then aseptically added to the seed medium to give the final concentration given in parentheses: thiamine (1 mg/L), glucose (1 g/L), lactose (15 g/L), 5 mL of a trace element solution, and tetracycline (5 mg/L). The trace element solution contained citric acid (10 g/L), CaCl2.2H2O (1.5 g/L), FeSO4.7H2O (5 g/L), ZnSO4.7H2O (0.39 g/L) and CuSO4.5H2O (0.38 g/L). The seed medium was inoculated from a frozen pre-seed culture and was grown in 250 mL baffled flasks in an Innova 4000 incubator shaker (New Brunswick Scientific Co., Edison, N.J.), incubated at 35° C. and 300 rpm for 12–16 h. One milliliter of this seed culture was used to inoculate each of the test cultures.
The test medium was 50 mL of an aqueous solution containing: (NH4)2SO4 (4 g), 1 mL of phosphate solution, MgSO4.7H2O (0.5 g), and MOPS (20.9 g), with the pH adjusted to 7.0. After sterilization of this medium, thiamine (1 mg/L), 5 mL of trace element solution, glucose (2 g/L), lactose (15 g/L), IPTG (0.5 mM), and tetracycline (10 mg/L) were aseptically added to give the final concentration given in parentheses. The 250 mL baffled flasks containing 50 mL of the test medium were inoculated with the seed culture and were incubated at 35° C. and 300 rpm for 42 h in the incubator shaker. Samples of the culture were taken at various times and the optical density at 550 nm (OD550) was measured spectrophotometrically. The pH of these samples was also measured. After completion of the fermentation, the tyrosine and phenylalanine concentrations in the culture were measured using HPLC, as described supra.
This experiment was repeated using pHS in place of pHCA.

P. putida NCIMB 9866 = test: Effect of pHCA on the growth of Pseudomonas putida NCIMB 9866; settings: pHCA 25 g/L
Description: as §1

[1] = adapted cells, LB medium, 30° C.
[2] = percentage of growth without pHCA

`O=C(O)C=Cc1ccc(O)cc1` [pHCA, para-hydroxycinnamic acid] was tested, and the “Doubling Time” value (P. putida KT2440; [1]) was 79 min, the “Growth Rate, %” value (P. putida KT2440; [2]) was 21% and the “OD 550” value (E. coli TY1 (DGL430); 17.5 h, pHCA added 1.00 g/L (as sodium pHCA)) was 2.47 and 2.41. For the same compound, the “OD 550” value (E. coli TY1 (DGL430); 17.5 h, pHCA added 2.00 g/L) was 1.49 and 1.27, the “OD 550” value (E. coli TY1 (DGL430); 17.5 h, pHCA added 4.00 g/L) was 0.20 and 0.22 and the “OD 550” value (E. coli TY1 (DGL430); 17.5 h, pHCA added 8.00 g/L) was 0.15. For the same compound, the “OD 550” value (E. coli TY1 (DGL430); 17.5 h, pHCA added 16.00 g/L) was 0.19 and 0.13, the “OD 550” value (E. coli TY1 (DGL430); 29 h, pHCA added 1.00 g/L) was 3.22 and 3.57 and the “OD 550” value (E. coli TY1 (DGL430); 29 h, pHCA added 2.00 g/L) was 1.77 and 1.47. For the same compound, the “OD 550” value (E. coli TY1 (DGL430); 29 h, pHCA added 4.00 g/L) was 1.21 and 1.61, the “OD 550” value (E. coli TY1 (DGL430); 29 h, pHCA added 8.00 g/L) was 0.16 and the “OD 550” value (E. coli TY1 (DGL430); 29 h, pHCA added 16.00 g/L) was 0.21 and 0.13. For the same compound, the “OD 550” value (E. coli TY1 (DGL430); 42 h, pHCA added 1.00 g/L) was 3.37 and 3.48, the “OD 550” value (E. coli TY1 (DGL430); 42 h, pHCA added 2.00 g/L) was 1.62 and 1.53 and the Phe (E. coli TY1 (DGL430); 42 h, pHCA added 2.00 g/L) was 95 mg/L. The Tyr (E. coli TY1 (DGL430); 42 h, pHCA added 2.00 g/L) was 100 mg/L and 105 mg/L, the “OD 550” value (E. coli TY1 (DGL430); 42 h, pHCA added 4.00 g/L) was 1.54 and 1.55 and the Phe (E. coli TY1 (DGL430); 42 h, pHCA added 4.00 g/L) was 15 mg/L and 20 mg/L. The Tyr (E. coli TY1 (DGL430); 42 h, pHCA added 4.00 g/L) was 65 mg/L and 75 mg/L, the “OD 550” value (E. coli TY1 (DGL430); 42 h, pHCA added 8.00 g/L) was 0.18 and 0.17 and the Phe (E. coli TY1 (DGL430); 42 h, pHCA added 8.00 g/L) was 10 mg/L. The Tyr (E. coli TY1 (DGL430); 42 h, pHCA added 8.00 g/L) was 15 mg/L and 25 mg/L, the “OD 550” value (E. coli TY1 (DGL430); 42 h, pHCA added 16.00 g/L) was 0.23 and 0.14 and the Phe (E. coli TY1 (DGL430); 42 h, pHCA added 16.00 g/L) was 5 mg/L. The Tyr (E. coli TY1 (DGL430); 42 h, pHCA added 16.00 g/L) was 0 mg/L, the Phe (E. coli TY1 (DGL430); 42 h, phenylalanine in culture, pHCA added 1.00 g/L) was 150 mg/L and 155 mg/L and the Tyr (E. coli TY1 (DGL430); 42 h, tyrosine in culture, pHCA added 1.00 g/L) was 210 mg/L and 190 mg/L. For the same compound, the “concentration at which complete inhibition of growth / no growth was observed” value (E. coli TY1 (DGL430); E. coli TY1 shake flask) was 8 g/L, the “concentration that inhibited cell growth” value (E. coli TY1 (DGL430); E. coli TY1 shake flask) was 1 g/L and the “Doubling Time” value (P. putida NCIMB 9866; [1]) was 105 min. For the same compound, the “Growth Rate, %” value (P. putida NCIMB 9866; [2]) was 18%.
